From publication PMC7646624 (European journal of medicinal chemistry, 2020)
Entries after “also recorded” stand apart in the source; their conditions may differ.

What was measured:
[1] = tested on: panel of Methyltransferases; assay: Methyltransferase profiling; format: biochemical; conditions: omitted from Table 2
[2] = biological target: PRMT1 (Homo sapiens, UniProt Q99873); assay: Methyltransferase profiling; format: biochemical
[3] = biological target: PRMT5-MEP50 complex (Homo sapiens, UniProt O14744); assay: Methyltransferase profiling; format: biochemical
Chain of PRMT5-MEP50 complex (O14744 whole entry): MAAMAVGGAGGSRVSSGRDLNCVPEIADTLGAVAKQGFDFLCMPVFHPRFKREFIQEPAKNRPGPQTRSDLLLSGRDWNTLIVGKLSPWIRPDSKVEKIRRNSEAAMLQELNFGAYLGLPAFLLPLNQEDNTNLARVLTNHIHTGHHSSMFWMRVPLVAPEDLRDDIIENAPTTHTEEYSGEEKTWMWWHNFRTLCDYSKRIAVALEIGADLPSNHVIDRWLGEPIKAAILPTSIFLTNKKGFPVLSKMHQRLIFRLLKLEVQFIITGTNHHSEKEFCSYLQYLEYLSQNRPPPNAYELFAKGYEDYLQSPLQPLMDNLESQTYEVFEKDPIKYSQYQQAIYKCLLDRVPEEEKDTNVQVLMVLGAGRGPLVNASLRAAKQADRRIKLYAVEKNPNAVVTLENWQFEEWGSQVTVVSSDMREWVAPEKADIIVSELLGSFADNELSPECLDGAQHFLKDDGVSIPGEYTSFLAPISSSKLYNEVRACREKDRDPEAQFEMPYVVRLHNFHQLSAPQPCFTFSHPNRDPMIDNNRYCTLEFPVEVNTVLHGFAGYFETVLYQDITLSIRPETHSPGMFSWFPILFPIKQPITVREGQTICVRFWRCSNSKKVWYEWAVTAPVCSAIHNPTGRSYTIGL
Chain of PRMT5-MEP50 complex (Q9BQA1 whole entry partner): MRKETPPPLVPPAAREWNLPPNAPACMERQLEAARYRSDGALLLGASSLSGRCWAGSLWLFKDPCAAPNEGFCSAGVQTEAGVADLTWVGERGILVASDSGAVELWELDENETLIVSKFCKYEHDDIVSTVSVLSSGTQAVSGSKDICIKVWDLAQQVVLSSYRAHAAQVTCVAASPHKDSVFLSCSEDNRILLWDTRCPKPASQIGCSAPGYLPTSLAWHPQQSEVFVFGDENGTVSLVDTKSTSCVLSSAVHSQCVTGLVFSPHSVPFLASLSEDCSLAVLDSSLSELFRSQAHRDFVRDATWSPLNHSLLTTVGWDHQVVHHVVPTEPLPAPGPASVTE

[4] = biological target: PRMT6 (Homo sapiens, UniProt Q96LA8); assay: Methyltransferase profiling; format: biochemical
Chain of PRMT6 (Q96LA8 whole entry): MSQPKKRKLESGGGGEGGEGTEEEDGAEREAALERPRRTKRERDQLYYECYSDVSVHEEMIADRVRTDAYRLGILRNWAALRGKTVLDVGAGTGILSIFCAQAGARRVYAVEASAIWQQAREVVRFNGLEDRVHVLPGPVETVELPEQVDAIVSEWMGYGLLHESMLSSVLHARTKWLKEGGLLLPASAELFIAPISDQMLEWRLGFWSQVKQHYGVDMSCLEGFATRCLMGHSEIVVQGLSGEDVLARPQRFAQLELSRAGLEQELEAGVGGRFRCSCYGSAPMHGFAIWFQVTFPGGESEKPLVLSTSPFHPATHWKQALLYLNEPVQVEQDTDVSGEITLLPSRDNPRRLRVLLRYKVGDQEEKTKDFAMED

[5] = biological target: T1, PRMT4 (Homo sapiens, UniProt Q86X55); assay: Methyltransferase profiling; format: biochemical
T1 sequence (Q86X55 1-608): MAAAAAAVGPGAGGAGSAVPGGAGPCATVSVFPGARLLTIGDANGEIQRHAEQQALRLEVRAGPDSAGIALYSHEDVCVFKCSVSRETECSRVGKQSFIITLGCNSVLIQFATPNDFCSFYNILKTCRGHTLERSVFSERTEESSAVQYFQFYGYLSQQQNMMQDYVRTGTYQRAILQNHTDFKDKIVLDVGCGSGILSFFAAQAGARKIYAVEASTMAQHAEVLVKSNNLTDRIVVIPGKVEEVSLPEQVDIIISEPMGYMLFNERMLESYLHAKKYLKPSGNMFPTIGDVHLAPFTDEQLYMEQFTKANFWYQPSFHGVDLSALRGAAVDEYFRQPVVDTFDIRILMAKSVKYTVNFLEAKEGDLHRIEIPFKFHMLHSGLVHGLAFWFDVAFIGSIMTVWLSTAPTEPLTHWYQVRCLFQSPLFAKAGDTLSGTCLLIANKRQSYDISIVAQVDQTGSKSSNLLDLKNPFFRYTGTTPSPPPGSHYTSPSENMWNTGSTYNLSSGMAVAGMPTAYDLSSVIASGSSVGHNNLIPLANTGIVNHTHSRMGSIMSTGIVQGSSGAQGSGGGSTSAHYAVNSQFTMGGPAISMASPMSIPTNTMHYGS

[6] = biological target: T2, GST-DOT1L (Homo sapiens, UniProt Q8TEK3); assay: In vitro radio-isotope labeling DOT1L histone methyltransferase; conditions: ratio of IC50 values, initial radio-isotope assays
T2 sequence (Q8TEK3 1-420): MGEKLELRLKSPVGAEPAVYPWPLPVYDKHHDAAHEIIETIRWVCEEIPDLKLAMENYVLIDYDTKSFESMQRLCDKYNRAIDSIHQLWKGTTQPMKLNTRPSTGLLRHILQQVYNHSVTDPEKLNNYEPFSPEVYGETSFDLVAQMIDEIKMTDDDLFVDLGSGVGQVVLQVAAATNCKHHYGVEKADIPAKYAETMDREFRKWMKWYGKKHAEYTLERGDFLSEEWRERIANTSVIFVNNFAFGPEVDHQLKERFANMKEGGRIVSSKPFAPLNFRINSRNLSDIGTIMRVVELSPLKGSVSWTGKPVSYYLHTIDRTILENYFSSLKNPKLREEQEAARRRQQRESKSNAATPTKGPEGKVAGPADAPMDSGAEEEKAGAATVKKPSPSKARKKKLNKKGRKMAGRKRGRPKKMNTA

[7] = biological target: PRMT3 (Homo sapiens, UniProt O60678); assay: biochemical
Chain of PRMT3 (O60678 whole entry): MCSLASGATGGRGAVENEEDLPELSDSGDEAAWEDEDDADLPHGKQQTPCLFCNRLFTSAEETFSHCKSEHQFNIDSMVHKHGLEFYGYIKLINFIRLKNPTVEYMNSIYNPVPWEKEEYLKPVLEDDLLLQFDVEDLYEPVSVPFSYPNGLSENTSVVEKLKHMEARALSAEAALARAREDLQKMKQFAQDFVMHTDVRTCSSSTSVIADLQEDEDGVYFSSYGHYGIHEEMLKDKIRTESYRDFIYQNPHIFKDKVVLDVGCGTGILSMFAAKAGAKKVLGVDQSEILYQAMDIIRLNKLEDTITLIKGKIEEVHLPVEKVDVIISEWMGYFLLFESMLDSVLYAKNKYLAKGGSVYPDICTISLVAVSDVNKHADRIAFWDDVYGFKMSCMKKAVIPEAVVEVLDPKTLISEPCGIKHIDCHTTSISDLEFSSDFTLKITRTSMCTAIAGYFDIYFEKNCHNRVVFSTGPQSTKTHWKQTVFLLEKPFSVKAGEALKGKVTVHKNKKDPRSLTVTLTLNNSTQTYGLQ

[8] = biological target: SUV39H2 (Homo sapiens, UniProt Q9H5I1); assay: Methyltransferase profiling; format: biochemical
Chain of SUV39H2 (Q9H5I1 whole entry): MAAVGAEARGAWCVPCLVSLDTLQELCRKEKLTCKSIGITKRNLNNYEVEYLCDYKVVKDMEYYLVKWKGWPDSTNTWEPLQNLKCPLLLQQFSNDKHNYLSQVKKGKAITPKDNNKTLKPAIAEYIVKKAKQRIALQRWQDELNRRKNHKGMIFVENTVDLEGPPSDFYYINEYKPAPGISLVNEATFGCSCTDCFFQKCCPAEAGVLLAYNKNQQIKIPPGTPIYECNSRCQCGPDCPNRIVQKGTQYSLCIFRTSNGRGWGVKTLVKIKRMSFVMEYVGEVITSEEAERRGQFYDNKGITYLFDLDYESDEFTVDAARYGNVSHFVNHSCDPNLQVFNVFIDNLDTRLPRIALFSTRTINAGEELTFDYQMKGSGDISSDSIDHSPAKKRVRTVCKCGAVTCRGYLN

[9] = tested on: H3K79 methylation; assay: Western blot analysis of H3K79 methylation in MLL-AF9 cells
[10] = biological target: T2, GST-DOT1L; assay: Saturation transfer difference; format: binding; conditions: SAH added in five-fold molar excess
[11] = tested on: H3K4, H3K27, H3K36, H4K20 methylation; assay: Western blot analysis of other histone methylation marks in MLL-AF9 cells
[12] = biological target: PRMT5 Alone (Homo sapiens, UniProt O14744); assay: biochemical
Chain of PRMT5 Alone (O14744 whole entry): as the sequence (O14744 whole entry) above

[13] = tested on: MLL-AF9 transformed cells
[14] = tested on: E2A-HLF cells; conditions: DOT1L-independent negative control line
[15] = tested on: MLL-AF9 transformed cells; conditions: various doses

Chain of PRMT1 (Q99873 whole entry): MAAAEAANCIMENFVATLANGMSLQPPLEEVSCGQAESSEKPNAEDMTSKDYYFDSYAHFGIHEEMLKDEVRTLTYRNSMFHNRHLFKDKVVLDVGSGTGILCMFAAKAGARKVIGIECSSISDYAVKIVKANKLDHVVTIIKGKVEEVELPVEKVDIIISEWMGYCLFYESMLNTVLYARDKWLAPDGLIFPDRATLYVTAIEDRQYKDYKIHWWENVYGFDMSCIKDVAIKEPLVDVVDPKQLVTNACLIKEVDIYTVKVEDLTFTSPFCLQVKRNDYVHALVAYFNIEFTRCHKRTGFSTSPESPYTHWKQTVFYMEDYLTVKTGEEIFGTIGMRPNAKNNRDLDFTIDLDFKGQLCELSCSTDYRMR

| Compound | IC50 [2] [µM] | IC50 [3] [µM] | IC50 [4] [µM] | IC50 [5] [µM] | IC50 [7] [µM] | IC50 [8] [µM] | further results |
| --- | --- | --- | --- | --- | --- | --- | --- |
| CC(C)(C)c1ccc(NC(=O)c2ncn(CC(=O)NCc3ccc4c(c3)OCO4)n2)cc1 [Compound 22, 1-(2-((benzo[d][1,3]dioxol-5-ylmethyl)amino)-2-oxoethyl)-N-(4-(tert-butyl)phenyl)-1H-1,2,4-triazole-3-carboxamide] |  |  |  |  |  |  | activity versus all MTs tested in the profiling assays [1]: inactive |
| Nc1nccc2cc(CNC(=O)Cn3cnc(C(=O)NC4CCCCC4)n3)ccc12 [Compound 28, 1-(2-(((1-aminoisoquinolin-6-yl)methyl)amino)-2-oxoethyl)-N-cyclohexyl-1H-1,2,4-triazole-3-carboxamide] | > 250 | > 250 | > 250 | > 250 |  |  |  |
| Cc1ccc(NC(=O)c2ncn(CC(=O)NCc3ccc4c(c3)OCO4)n2)cc1C [Compound 9, 1-(2-((benzo[d][1,3]dioxol-5-ylmethyl)amino)-2-oxoethyl)-N-(3,4-dimethylphenyl)-1H-1,2,4-triazole-3-carboxamide] |  |  |  |  |  |  | fold better activity than 8 [6]: 1.5 fold |
| Nc1ncnc2c1ncn2[C@@H]1O[C@H](CSCC[C@H](N)C(=O)O)[C@@H](O)[C@H]1O [SAH, S-adenosylhomocysteine, reference compound] |  |  |  |  | 1.44 |  |  |
| Cc1ccc(NC(=O)c2ncn(CC(=O)NCc3ccc4c(N)nccc4c3)n2)cc1C [Compound 19, 1-(2-(((1-aminoisoquinolin-6-yl)methyl)amino)-2-oxoethyl)-N-(3,4-dimethylphenyl)-1H-1,2,4-triazole-3-carboxamide] | > 250 | > 250 | > 250 | > 250 |  |  |  |
| CC(C)(C)c1ccc(NC(=O)c2ncn(CC(=O)NCc3ccc4[nH]ncc4c3)n2)cc1 [Compound 23, 1-(2-(((1H-indazol-5-yl)methyl)amino)-2-oxoethyl)-N-(4-(tert-butyl)phenyl)-1H-1,2,4-triazole-3-carboxamide] |  |  |  |  |  | > 250 |  |
| Nc1ncnc2c1ncn2[C@@H]1O[C@H](CNCc2ccc(OCC(=O)Nc3ccccn3)cc2)[C@@H](O)[C@H]1O [Compound 2] |  |  |  |  |  |  | cellular H3K79 methylation ([9]; time course of 3, 6 and 9 days): inhibits cellular H3K79 dimethylation; also recorded: reduced; competitive STD NMR with SAH [10]: competed off by SAH; H3K4, H3K27, and H3K36 trimethylation states [11]: not changed |
| Cc1ccc(NC(=O)c2ncn(CC(=O)NCCn3ccc4c(N)ncnc43)n2)cc1C [Compound 20, 1-(2-((2-(4-amino-7H-pyrrolo[2,3-d]pyrimidin-7-yl)ethyl)amino)-2-oxoethyl)-N-(3,4-dimethylphenyl)-1H-1,2,4-triazole-3-carboxamide] |  |  |  |  |  | > 250 |  |
| CC(C)(C)c1ccc(NC(=O)c2ncn(CC(=O)NCc3ccc4c(N)nccc4c3)n2)cc1 [Compound 24, 1-(2-(((1-aminoisoquinolin-6-yl)methyl)amino)-2-oxoethyl)-N-(4-(tert-butyl)phenyl)-1H-1,2,4-triazole-3-carboxamide] | > 250 | > 250 | > 250 | > 250 | 41.1 | > 250 | IC50 [12]: 227 µM |
| CC(C)(C)c1ccc(NC(=O)c2ncn(CC(=O)NCCn3ccc4c(N)ncnc43)n2)cc1 [Compound 25, 1-(2-((2-(4-amino-7H-pyrrolo[2,3-d]pyrimidin-7-yl)ethyl)amino)-2-oxoethyl)-N-(4-(tert-butyl)phenyl)-1H-1,2,4-triazole-3-carboxamide] | > 250 | > 250 | > 250 | > 250 | 149 | > 250 | cellular H3K79 methylation ([9]; day 6): dose-dependent inhibition; cellular H3K79 methylation ([9]; day 9, 30 μM): complete inhibition; cellular H3K79 methylation ([9]; day 9, 10 and 3 μM): significant decrease; cell growth inhibition of MLL-AF9 cells ([13]; day 11 at 30 μM): complete cell growth inhibition; killing of MLL-AF9 cells versus E2A-HLF cells ([13]; murine established leukemia cell lines): selectively killed MLL-AF9; IC50 [12]: 187 µM; effect on the growth of E2A-HLF cells [14]: without showing any effect on the growth; H3K4me3 and H4K20me2 ([11]; day 6): no significant changes; cell differentiation, Wright-Giemsa stain [15]: dose-dependent cell differentiation |
